For one molecule, solubility results are on record in US6743443B1, “Tablets immediately disintegrating in the oral cavity” (Eisai Co., Ltd., priority 1998, dated 2004).

A word on the solubility: it is the concentration that dissolves in the medium under given conditions. The low end stands for little dissolved substance, the high end for much dissolved substance.

The nature of the series: physchem. The note with it: 37 °C. From the text: However, there has been no report yet for an intraoral quickly disintegrating tablet containing a slightly soluble pharmaceutical agent having an improved solubility as such and for a method of manufacturing the tablet. One of the reasons therefor is that it is difficult for satisfying all of the requirements for improving the solubility of the slightly soluble pharmaceutical agent, for a quick disintegration in the mouth and for ensuring a good touch on the tongue upon disintegration. Many of the pharmaceutical ingredients acting as a cyclic GMP phosphodiesterase inhibitor are the compounds having a relatively low solubility and are within a category of the slightly soluble pharmaceutical agents.

The structures appear in SMILES notation.

For the molecule `COc1ccc(CNc2nnc(N3CCC(O)CC3)c3ccc(C#N)cc23)cc1Cl.Cl` [formula (IX), 4-(3-chloro-4-methoxybenzyl)amino-6-cyano-1-(4-hydroxypiperidino)phthalazine hydrochloride], the solubility by setting is: (pH 1.2, simulated gastric fluid) 130 µg/mL; (pH 6.8, aqueous buffer) 6.3 µg/mL.
